Holding throughout (assay type): in vivo, human
The nature of experiment [1]: Sweetness concentration response curve against sucrose reference standards, trained sensory panel. The conditions noted are these: for Potency at 5 SEV / potency, times as sweet as sucrose at 5 SEV: spring water, room temperature; for potency, times as sweet as sucrose at 5 SEV: at 5 sucrose equivalent value (SEV). As for the experimental part:
A blend composed of 80% purified mogroside-V (Chem Faces, CFS202202), 15% 11-oxo-mogroside-V (Chem Faces, CFS202201), and 5% mogroside IIIA-1 (Chem Faces, CFS202201) was diluted to six different concentrations (from 100 ppm to 650 ppm) in spring water (Ice Mountain, retail). For each solution, a set of five reference standards of sucrose dissolved in water in 0.5% (w/w) concentration increments was also prepared. Each concentration of the mogroside blend was evaluated by 6-8 trained judges. Samples were presented in 4-oz soufflé cups at room temperature, and the test sample was labeled with a random 3-digit code. Panelists tasted the blind-coded sample compared to the set of reference samples to determine the sweetness intensity score to the nearest 0.1 unit. Each concentration was evaluated in duplicate. The sweetness intensity scores were then plotted against the mogroside blend concentration to make a concentration response curve, and the best fitting Beidler equation was generated.
V90 is a 90% pure mogroside V containing about 6% 11-oxo mogroside-V. Five different concentrations of V90 (Huacheng Bio, LHGE-230401), ranging from 100 ppm to 500 ppm, were diluted in spring water (Ice Mountain, retail). Each dilution was presented to a panel of 7-8 judges experienced in evaluating sweeteners and was accompanied by a range of five sucrose solution reference standards bracketing the sweetness intensity of the test sample in 0.5% (w/w) increments. Panelists assigned a sweetness intensity score to each test sample, including blind duplicates, to the nearest 0.1 unit. All samples were served at room temperature in 4-oz soufflé cups with the test samples labeled with random 3-digit codes. Water and saltine crackers were provided for rinsing between samples.
Both individual mogrosides were also evaluated at five different concentrations in spring water (Ice Mountain, retail) for sweetness intensity. 11-oxo-mogroside was diluted to concentrations ranging from 200 ppm to 600 ppm and mogroside IIIA-1 was diluted to concentrations from 100 to 500 ppm. For each concentration, a set of five sucrose solution reference standards were prepared in 0.5% (w/w) increments to approximately bracket the sweetness intensity of the test sample. A panel of 6-8 trained judges evaluated each test sample in duplicate, accompanied by the corresponding reference standards, and assigned a sweetness intensity score to the sample to the nearest 0.1 unit. Samples were presented in 4-oz soufflé cups at room temperature, and the test sample was labeled with a random 3-digit code. The sweetness intensity scores were then plotted as a function of mogroside concentration to make a concentration response curve, and the best fitting Beidler equation was generated.
The error bars around each point represent 1 standard deviation. The data fit a Beidler equation with an r2 value of 0.961. The equation for this line is:
SEV=16.08*C/(521.2+C) • where SEV is the % sucrose equivalent sweetness as determined by sensory panel and C is the concentration of mogroside blend in ppm or mg/L.
P=SEV*10,000/C • where C is the concentration of the mogroside blend in ppm or mg/L and SEV is the % sucrose equivalent sweetness determined by sensory panel.

The nature of experiment [2]: Temporal properties: onset of sweetness, time to maximum sweetness, aftertaste decay, trained sensory panel. The conditions noted are these: for sweetness decay time after expectorating: solutions at about 6 SEV. As to the method: Equi-sweet solutions at about 6 SEV were made in spring water (Ice Mountain, retail) of the following sweeteners: purified mogroside-V (Chem Faces, CFS202202), rebaudioside M (95%, Tate & Lyle, lot #1802-2302-1), rebaudioside A (95%, Tate & Lyle, 210617-01), and monk fruit (50% mogroside V, Tate & Lyle, 45GF220305). Another solution was prepared at about 6 SEV of a blend composed of 80% purified mogroside-V (Chem Faces, CFS202202), 15% 11-oxo-mogroside-V (Chem Faces, CFS202201), and 5% mogroside IIIA-1 (Chem Faces, CFS202201). The concentration of each solution can be found in Table 7.
A set of samples of each solution was evaluated by a panel of 7-9 trained judges. Panelists measured the time to onset of sweetness and time to reach maximum sweetness using a timer. Sweetness decay after expectorating was measured by rating sweetness intensity every 5 seconds on a 15-cm line scale graduated in evenly spaced 5-point increments and labeled low (0) to high (60). Samples were served at room temperature in 4-oz soufflé cups, labeled with random 3-digit codes. Water and saltine crackers were provided for rinsing between samples. Blind duplicates were evaluated in a second panel under the same conditions.
(§1) A solution of V90 was made at 410 ppm in spring water (Ice Mountain, retail) to be about 6 SEV. A second solution was made at about 6 SEV of purified mogroside-V (Chem Faces, CFS202202) at 325 ppm. A panel of 7-8 trained judges evaluated the temporal properties and taste attributes of each sample, including blind duplicates, in the same manner described previously in the Mogroside Blend 80/15/5 Taste Quality sections.
Two individual mogroside components of the blend, 11-oxo mogroside-V (Chem Faces, […]) and mogroside III-A1 (Chem Faces, 202301), were evaluated separately in spring water (Ice Mountain, retail) to determine the concentration needed to reach approximately 6 SEV. Solutions were then prepared at 3600 ppm of 11-oxo-mogroside-V and 600 ppm mogroside IIIA-1.
A panel of 6-7 trained judges evaluated the solutions by measuring the time to onset of sweetness and time to reach maximum sweetness using a timer. Decay of lingering aftertaste after expectorating was measured by rating sweetness intensity every 5 seconds on a 15-cm line scale graduated in evenly spaced 5-point increments and labeled low (0) to high (60). Samples were served at room temperature in 4-oz soufflé cups, labeled with random 3-digit codes, including blinded duplicates. Water and saltine crackers were provided for rinsing between samples.

Experiment [3] can be described thus: Descriptive analysis of sweetener attributes, sensory panel, 15-cm line scale. The conditions noted are these: for Astringent, average intensity score / Bitter Linger, average intensity score / Bitterness, average intensity score / Body, average intensity score / Caramel, average intensity score / Fruity, average intensity score / Licorice, average intensity score / Sweet Linger, average intensity score / Sweetness, average intensity score: about 6 SEV in spring water, 0=low, 60=high; for taste quality in words: sensory panel.
Description: The same samples described above were presented to a panel of 6-9 experienced judges for descriptive analysis. Solutions were blind-coded with random 3-digit codes and served at room temperature for evaluation. Panelists individually scored attributes of each sample, such as sweetness intensity, bitterness, astringency, and the presence of side flavors such as licorice or fruitiness. Scores were based on a 15-cm line scale marked with evenly spaced 5-point increments from low (0) to high (60). Samples were evaluated in duplicate. Water and saltine crackers were provided for rinsing between samples.
as §1
The panel also evaluated the intensity of several sensory attributes such as bitterness, astringency, caramel flavor, and fruitiness. The same 15-cm line scale was used for scoring, labeled from low (0) to high (60) with evenly spaced 5-point increments. The samples were served in 4-oz soufflé cups that were labeled with random 3-digit codes. Samples were evaluated at room temperature and included blind duplicates. Water and saltine crackers were provided for rinsing between samples. A 400-ppm solution of V90 (Huacheng Bio, LHGE-230401) was tasted as a reference at the beginning of the descriptive analysis session for calibration verification among panelists.

“Also recorded” adds a separate entry of the source.

Turning to `C[C@H](CC[C@@H](O[C@@H]1O[C@H](CO[C@@H]2O[C@H](CO)[C@@H](O)[C@H](O)[C@H]2O)[C@@H](O)[C@H](O)[C@H]1O[C@@H]1O[C@H](CO)[C@@H](O)[C@H](O)[C@H]1O)C(C)(C)O)[C@H]1CC[C@@]2(C)[C@@H]3CC=C4[C@@H](CC[C@H](O[C@@H]5O[C@H](CO[C@@H]6O[C@H](CO)[C@@H](O)[C@H](O)[C@H]6O)[C@@H](O)[C@H](O)[C@H]5O)C4(C)C)[C@]3(C)C(=O)C[C@]12C` [11-oxo-mogroside V], in experiment [1] (1,000 ppm, from Beidler curve), the “SEV at 1,000 ppm” value is 4.2 SEV. The “Potency at 5 SEV” value in experiment [1] amounted to 28×. Further, the “potency, times as sweet as sucrose at 5 SEV” value in experiment [1] (listed as 11-oxo mogroside-V) is reported as “approximately 28 times as sweet as sucrose”. In experiment [1] (listed as 11-oxo-mogroside-V), the “potency, times as sweet as sucrose at 5 SEV” value is on record as 28 times as sweet as sucrose. In addition, the “sweetness decay time after expectorating” value in experiment [2] is recorded as “about 45 seconds”. For the same compound, in experiment [3], the “Astringent, average intensity score” value turned out to be 4.3; the “Bitter Linger, average intensity score” value turned out to be 0.7; the “Bitterness, average intensity score” value is on record as 7.7; the “Body, average intensity score” value came out at 12.7. In addition, in experiment [3], the “Caramel, average intensity score” value was determined as 4.8; the “Fruity, average intensity score” value was determined as 2.1; the “Licorice, average intensity score” value amounted to 2.1; the “Sweet Linger, average intensity score” value stood at 17.1. Moreover, in experiment [3], the “Sweetness, average intensity score” value was 37.1 and the “taste quality in words” value is “slight bitterness”.
Turning to `C[C@H](CC[C@@H](O[C@@H]1O[C@H](CO[C@@H]2O[C@H](CO)[C@@H](O)[C@H](O)[C@H]2O)[C@@H](O)[C@H](O)[C@H]1O[C@@H]1O[C@H](CO)[C@@H](O)[C@H](O)[C@H]1O)C(C)(C)O)[C@H]1CC[C@@]2(C)[C@@H]3CC=C4[C@@H](CC[C@H](O)C4(C)C)[C@]3(C)[C@H](O)C[C@]12C` [Mogroside IIIA-1, mogroside IIIA-1], the “Potency at 5 SEV” value in experiment [1] stood at 71×. Moreover, in experiment [1] (in vivo), the “SEV at which the concentration response curve plateaus” value is reported as 4-5 SEV and the “concentration at which sweetness plateaus” value is reported as “about 500 ppm”. Also, the “duration of bitter taste after expectorating” value in experiment [2] (600 ppm, about 6 SEV) is recorded as “more than 60 seconds”. Besides, in experiment [3], the “Astringent, average intensity score” value is listed as 5.1; the “Bitter Linger, average intensity score” value was determined as 37.3; the “Bitterness, average intensity score” value was 37.3; the “Body, average intensity score” value came to 12.1. In experiment [3], the “Caramel, average intensity score” value was 1.9; the “Fruity, average intensity score” value was 0.7; the “Licorice, average intensity score” value was found to be 2.2; the “Sweet Linger, average intensity score” value is 5.7. Also, in experiment [3], the “Sweetness, average intensity score” value is listed as 34.5 and the “taste quality in words” value is “strongly bitter with a strong lingering bitter aftertaste”. In experiment [3] (listed as mogroside IIIA-1), the “taste quality in words” value is given as “strong bitter aftertaste that almost immediately overwhelmed any lingering sweet sensation”.
As to `C=C1C[C@@]23CC[C@H]4[C@@](C)(CCC[C@@]4(C)C(=O)O[C@@H]4O[C@H](CO)[C@@H](O)[C@H](O)[C@H]4O)[C@@H]2CC[C@]1(O[C@@H]1O[C@H](CO)[C@@H](O)[C@H](O[C@@H]2O[C@H](CO)[C@@H](O)[C@H](O)[C@H]2O)[C@H]1O[C@@H]1O[C@H](CO)[C@@H](O)[C@H](O)[C@H]1O)C3` [Rebaudioside A, rebaudioside A], the “sweetness decay time after expectorating” value in experiment [2] is recorded as “about 40 seconds”. Besides, in experiment [3], the “taste quality in words” value is recorded as “a bitter taste continued to linger; also recorded: notable bitterness compared to the other sweeteners”.
In the case of `C=C1C[C@@]23CC[C@H]4[C@@](C)(CCC[C@@]4(C)C(=O)O[C@@H]4O[C@H](CO)[C@@H](O)[C@H](O[C@@H]5O[C@H](CO)[C@@H](O)[C@H](O)[C@H]5O)[C@H]4O[C@@H]4O[C@H](CO)[C@@H](O)[C@H](O)[C@H]4O)[C@@H]2CC[C@]1(O[C@@H]1O[C@H](CO)[C@@H](O)[C@H](O[C@@H]2O[C@H](CO)[C@@H](O)[C@H](O)[C@H]2O)[C@H]1O[C@@H]1O[C@H](CO)[C@@H](O)[C@H](O)[C@H]1O)C3` [Rebaudioside M, rebaudioside M], the “sweetness decay time after expectorating” value in experiment [2] amounted to 50 s.

For the origin of these results see patent US20250290110A1, “MOGROSIDE COMPOSITIONS AND METHODS OF PRODUCING SAME” (Elo Life Systems, priority 2024, published 2025).
